From patent US20260206755A1, “COMPOUNDS AND COMPOSITIONS HAVING KNOCK-DOWN OR BLOOD FEED INHIBITION ACTIVITY AGAINST INSECT PESTS” (priority 2017, published 2026) come the findings set out here.

Read-outs that look alike come from different tables or passages of the source.

The data set deals with Anopheles stephensi. The experiment in a line: Anopheles stephensi treated well plate contact test: knockdown and mortality. In kind it is in vivo. As to conditions: for mortality at 0.2 ppm / pest or weed control at 0.2 ppm: test compound 0.2 ppm; for mortality at 2 ppm / pest or weed control at 2 ppm: test compound 2 ppm; for mortality at 20 ppm / pest or weed control at 20 ppm: test compound 20 ppm; for mortality at 200 ppm / pest or weed control at 200 ppm: test compound 200 ppm; for pest or weed control at 200 ppm: adult females. On the procedure: Examples Anopheles stephensi (Indian Malaria Mosquito)
The individual wells of twelve (12) well tissue culture plates were treated with 200 μl of an ethanol solution containing a test compound of Table 1 or Table 2 at a defined concentration and repeated with also 200 μl of an ethanol solution containing in addition 2 ppm TFNA-AM. Once the deposits were dry, five non-blood fed adult female Anopheles stephensi (between two to five day old) were added to each well, and sustained with a 10% sucrose solution in a cotton wool plug. Assessment of the knockdown after 1 hour, and mortality after 24 and 48 hours was carried out.
In case of multiple tests, the mean value is reported.

The mark [1] stands for this setting: Anopheles stephensi, without TFNA-AM, after 24 hours, read-out: mortality % 24, without TFNA-AM.
Where [2] appears, read: Anopheles stephensi, without TFNA-AM, after 48 hours, read-out: mortality % 48, without TFNA-AM.
Where [3] appears, read: Anopheles stephensi, without TFNA-AM, knockdown after 1 hour, read-out: Knock Down, without TFNA-AM.
Setting [4] is: test compound 0.2 ppm plus 2 ppm TFNA-AM, after 48 hours.
Setting [5] is: test compound 0.2 ppm plus 2 ppm TFNA-AM, knockdown after 1 hour.
The mark [6] stands for this setting: test compound 2 ppm plus 2 ppm TFNA-AM, after 24 hours.
The mark [7] stands for this setting: test compound 2 ppm plus 2 ppm TFNA-AM, after 48 hours.
The mark [8] stands for this setting: test compound 2 ppm plus 2 ppm TFNA-AM, knockdown after 1 hour.
Where [9] appears, read: test compound 20 ppm plus 2 ppm TFNA-AM, after 24 hours.
Setting [10] is: test compound 20 ppm plus 2 ppm TFNA-AM, after 48 hours.
The mark [11] stands for this setting: test compound 20 ppm plus 2 ppm TFNA-AM, knockdown after 1 hour.
The mark [12] stands for this setting: test compound 200 ppm plus 2 ppm TFNA-AM, after 24 hours.
Setting [13] is: test compound 200 ppm plus 2 ppm TFNA-AM, after 48 hours.
Where [14] appears, read: test compound 200 ppm plus 2 ppm TFNA-AM, knockdown after 1 hour.
Setting [15] is: test compound 0.2 ppm plus 2 ppm TFNA-AM, after 24 hours.

With `CO/C=C(/C(=O)OC)c1ccccc1Oc1ncc(C(F)(F)F)s1` [Compound 54], the mortality at 0.2 ppm by setting is: under setting [1], 0%; under setting [2], 0%. Moreover, under setting [3], the pest or weed control at 0.2 ppm came out at 0%. The mortality at 2 ppm under setting [1] was 60% and the mortality at 2 ppm under setting [2] came to 40%. Besides, under setting [3], the pest or weed control at 2 ppm was found to be 0%. Besides, the mortality at 20 ppm by setting is: under setting [1], 100%; under setting [2], 100%. Also, under setting [3], the pest or weed control at 20 ppm is 100%. Moreover, the mortality at 200 ppm is, setting by setting: under setting [1], 100%; under setting [2], 100%. Moreover, under setting [3], the pest or weed control at 200 ppm stood at 100%. Further, the “mortality % 48, with TFNA-AM” value is, setting by setting: under setting [4], 10%; under setting [7], 100%; under setting [10], 100%; under setting [13], 100%. Besides, the “Knock Down, with TFNA-AM” value is on record as 90% under setting [5], 100% under setting [8], 100% under setting [11] and 100% under setting [14]. The “mortality % 24, with TFNA-AM” value is 100% under setting [6], 100% under setting [9] and 100% under setting [12].

In the case of `CC1(C)C(C=C(Cl)Cl)C1C(=O)OC(C#N)c1cccc(Oc2ccccc2)c1` (stereo not shown) [Cypermethrin], the mortality at 0.02 ppm was 0% (Anopheles stephensi, test compound 0.02 ppm, without TFNA-AM, after 24 hours, read-out: mortality % 24, without TFNA-AM) and 20% (Anopheles stephensi, test compound 0.02 ppm, without TFNA-AM, after 48 hours, read-out: mortality % 48, without TFNA-AM). For the setting “Anopheles stephensi, test compound 0.02 ppm, without TFNA-AM, knockdown after 1 hour, read-out: Knock Down, without TFNA-AM”, the pest or weed control at 0.02 ppm is 0%. Besides, the mortality at 0.2 ppm by setting is: under setting [1], 0%; under setting [2], 40%. The pest or weed control at 0.2 ppm under setting [3] worked out at 0%. Further, the mortality at 2 ppm under setting [1] is 100% and the mortality at 2 ppm under setting [2] came to 100%. For the same compound, under setting [3], the pest or weed control at 2 ppm was 100%. In addition, the mortality at 20 ppm runs as follows: under setting [1], 100%; under setting [2], 100%. Moreover, the pest or weed control at 20 ppm under setting [3] turned out to be 100%. The “mortality % 24, with TFNA-AM” value was 80% (test compound 0.02 ppm plus 2 ppm TFNA-AM, after 24 hours); 100% under setting [15]; 100% under setting [6]; 100% under setting [9]. Also, the “Knock Down, with TFNA-AM” value is, setting by setting: (test compound 0.02 ppm plus 2 ppm TFNA-AM, knockdown after 1 hour) 100%; under setting [5], 100%; under setting [8], 100%; under setting [11], 100%. Besides, the “mortality % 48, with TFNA-AM” value under setting [4] amounted to 100%; the “mortality % 48, with TFNA-AM” value under setting [7] was 100%; the “mortality % 48, with TFNA-AM” value under setting [10] is on record as 100%.

With `Nc1nc(N)nc(NC2CC2)n1` [Cyromazine], the mortality at 0.2 ppm stood at 0% under setting [1] and 0% under setting [2]. Also, the pest or weed control at 0.2 ppm under setting [3] was found to be 0%. Further, the mortality at 2 ppm amounted to 0% under setting [1] and 0% under setting [2]. Further, the pest or weed control at 2 ppm under setting [3] was found to be 0%. Besides, the mortality at 20 ppm was 0% under setting [1] and 0% under setting [2]. The pest or weed control at 20 ppm under setting [3] came to 0%. The mortality at 200 ppm stood at 0% under setting [1] and 0% under setting [2]. Further, the pest or weed control at 200 ppm under setting [3] turned out to be 0%. Also, the “mortality % 24, with TFNA-AM” value runs as follows: under setting [15], 20%; under setting [6], 20%; under setting [9], 60%; under setting [12], 80%. In addition, the “mortality % 48, with TFNA-AM” value by setting is: under setting [4], 0%; under setting [7], 0%; under setting [10], 40%; under setting [13], 40%. The “Knock Down, with TFNA-AM” value under setting [5] is on record as 100%; the “Knock Down, with TFNA-AM” value under setting [8] is reported as 100%; the “Knock Down, with TFNA-AM” value under setting [11] stood at 100%; the “Knock Down, with TFNA-AM” value under setting [14] was 100%.

`CC(C)c1cc(Oc2ccccc2)cc(C(C)C)c1NC(=S)NC(C)(C)C` [Diafenthiuron]: the mortality at 0.2 ppm was 0% under setting [1] and 20% under setting [2]. In addition, the pest or weed control at 0.2 ppm under setting [3] amounted to 60%. Besides, the mortality at 2 ppm turned out to be 0% under setting [1] and 20% under setting [2]. Also, the pest or weed control at 2 ppm under setting [3] was found to be 100%. Further, the mortality at 20 ppm is, setting by setting: under setting [1], 0%; under setting [2], 0%. Further, the pest or weed control at 20 ppm under setting [3] stood at 100%. In addition, the mortality at 200 ppm under setting [1] stood at 100% and the mortality at 200 ppm under setting [2] was determined as 100%. Moreover, the pest or weed control at 200 ppm under setting [3] is 100%. Moreover, the “mortality % 24, with TFNA-AM” value is, setting by setting: under setting [15], 60%; under setting [6], 100%; under setting [9], 100%; under setting [12], 100%. Besides, the “mortality % 48, with TFNA-AM” value is 0% under setting [4], 60% under setting [7], 80% under setting [10] and 100% under setting [13]. The “Knock Down, with TFNA-AM” value reads like this: under setting [5], 100%; under setting [8], 100%; under setting [11], 100%; under setting [14], 100%.

Turning to `OC(c1ccc(Cl)cc1)(c1ccc(Cl)cc1)C(Cl)(Cl)Cl` [Dicofol], the mortality at 0.2 ppm runs as follows: under setting [1], 0%; under setting [2], 0%. Also, under setting [3], the pest or weed control at 0.2 ppm came to 0%. Also, the mortality at 2 ppm by setting is: under setting [1], 0%; under setting [2], 0%. In addition, the pest or weed control at 2 ppm under setting [3] stood at 0%. The mortality at 20 ppm under setting [1] amounted to 0% and the mortality at 20 ppm under setting [2] was determined as 0%. For the same compound, the pest or weed control at 20 ppm under setting [3] was found to be 0%. In addition, the mortality at 200 ppm reads like this: under setting [1], 0%; under setting [2], 0%. Further, the pest or weed control at 200 ppm under setting [3] is 0%. Moreover, the “mortality % 24, with TFNA-AM” value is 20% under setting [15], 60% under setting [6], 80% under setting [9] and 100% under setting [12]. The “mortality % 48, with TFNA-AM” value came out at 0% under setting [4], 20% under setting [7], 100% under setting [10] and 100% under setting [13]. Also, the “Knock Down, with TFNA-AM” value under setting [5] was found to be 100%; the “Knock Down, with TFNA-AM” value under setting [8] was determined as 100%; the “Knock Down, with TFNA-AM” value under setting [11] is listed as 100%; the “Knock Down, with TFNA-AM” value under setting [14] stood at 100%.

As for `CCC(Nc1ncnc(C)c1Cl)c1ccc(OC(F)F)cc1` (stereo not shown) [Diflumetorim], the mortality at 0.2 ppm reads like this: under setting [1], 0%; under setting [2], 0%. Further, under setting [3], the pest or weed control at 0.2 ppm is 0%. The mortality at 2 ppm came to 60% under setting [1] and 60% under setting [2]. For the same compound, the pest or weed control at 2 ppm under setting [3] was found to be 30%. Also, the mortality at 20 ppm reads like this: under setting [1], 100%; under setting [2], 100%. In addition, the pest or weed control at 20 ppm under setting [3] amounted to 100%. Besides, the mortality at 200 ppm runs as follows: under setting [1], 100%; under setting [2], 100%. The pest or weed control at 200 ppm under setting [3] was 100%. Also, the “mortality % 24, with TFNA-AM” value under setting [15] was determined as 20%; the “mortality % 24, with TFNA-AM” value under setting [6] was 90%; the “mortality % 24, with TFNA-AM” value under setting [9] was 100%; the “mortality % 24, with TFNA-AM” value under setting [12] came out at 100%. For the same compound, the “mortality % 48, with TFNA-AM” value reads like this: under setting [4], 10%; under setting [7], 90%; under setting [10], 100%; under setting [13], 100%. Moreover, the “Knock Down, with TFNA-AM” value was determined as 100% under setting [5], 100% under setting [8], 100% under setting [11] and 100% under setting [14].
